Laboratory results reported in patent publication US11523997B2, “Method of providing celiprolol therapy to a patient” (Assistance Publique-Hôpitaux de Paris (AP-HP), priority 2017, dated 2022).

Legend:
[1] = tested on: patients with molecularly confirmed vascular EDS; assay: Long-term cohort follow-up of vEDS patients treated with celiprolol: patient survival (Kaplan-Meier, Cox model); assay type: in vivo, human; set-up: Survival of patients at 1 year of follow-up / Survival of patients at 5 years of follow-up / Survival of patients at 10 years of follow-up / Overall patient survival (Kaplan-Meier) / Survival at end of follow-up in those treated with celiprolol / Survival according to type of variant: Group I / Survival according to type of variant: Group II / Survival according to type of variant: Group III: concentration or dose not given beside the values
Experimental: (§1) All patients with clinically and molecularly diagnosed vEDS that were actively followed clinically in the French National Referral Centre for Rare Vascular Diseases (HEGP, AP-HP, Paris, France) between January 2000 and March 2017 were screened for participation. During the initial evaluation of the first affected family member seeking medical attention for symptoms related to vEDS (index case), familial medical history was recorded and investigation performed in the first-degree relatives whenever possible. A dedicated database for vEDS was created at our institution in 2011. All relevant clinical data of every vEDS patient followed by our centre was entered into this database retrospectively from the year 2000 until 2011, and prospectively thereafter until Mar. 15, 2017. The database contains all available medical history related to the pathology before the initial work-up and obtained during the follow-up either through systematic visits or those caused by a new clinical event. Thus, the occurrence of any acute arterial, gastrointestinal, pulmonary and other vEDS-related events was systematically recorded. In case of death during follow-up, the time and cause of death were entered into the database. This study was formally approved by the IDF ethics committee (IRB registration #00001072) and the database was held in compliance with French legislation on patient privacy.
(§2) All vEDS patients benefited from standardized whole body arterial monitoring by Doppler Ultrasound (DUS) and CT angiogram and/or MRA. Such investigations were performed at baseline (initial assessment at molecular diagnosis) and was repeated every 12 to 15 months in asymptomatic patients. For arterial events that occurred before molecular diagnosis, location of arterial segments was retrieved from hospitalization and imaging reports or examinations, when available. In case of an acute arterial event, symptomatic arterial beds/segments were monitored by any necessary diagnostic and therapeutic means (CT-angiogram, DUS, angiography in case of embolization). […] For optimized management of arterial, gastrointestinal, and pulmonary emergencies, patients were given direct access to the medical team of our centre.
(§3) Since the publication of the BBest trial in 2011, all included patients followed by our centre and not already treated with celiprolol were offered to switch to celiprolol. Patients who were not part of the trial and who were diagnosed during or since the termination of the BBest trial were treated with celiprolol starting at molecular diagnosis. Initial dosing of celiprolol was 100 mg once daily and increased by 100 mg/day every month over a 3-month period to reach the dose of 400 mg/day (200 mg twice daily) (celiprolol hydrochloride). In case of signs of intolerance (fatigue, dizziness) during up-titration or follow-up, the dose of celiprolol was reduced by 100 mg/day until the highest tolerated dose was reached. Dose adjustments were made whenever necessary throughout the patient's follow-up if intolerance was suspected. In accordance with the treatment protocol of the BBEST trial, patients were up-titrated to a maximum dose of 200 mg twice daily.
Adherence to medication was verified by open interview of the patients at each follow-up visit. Low medication adherence was considered if patients admitted to not taking their medication regularly at any moment of their follow-up. Patients were considered intolerant to celiprolol in case of refusal to follow the prescription even at a minimum dose of 100 mg/day. Patients taking another beta-blocker were offered to switch to celiprolol but this change was not mandatory, especially if patients had been clinically silent until molecular diagnosis while under another betablocker. If an acute arterial event occurred, patients were once again offered to switch to celiprolol. […]

[2] = tested on: patients with molecularly confirmed vascular EDS; assay: Cohort follow-up: incidence of acute arterial events and hospitalizations; assay type: in vivo, human
Experimental: as §1, §2
In order to assess arterial morbidity over a long timeline in patients with different follow-up periods, an empirical arterial score was designed for each subject. […]
Quantitative data were expressed as number, median, first and third quartiles; qualitative data were expressed as number and percentage. […] Quantitative variables were compared with the Wilcoxon-Mann-Whitney or the Kruskal Wallis tests, as appropriate. […]

[3] = tested on: patients with molecularly confirmed vascular EDS; assay: Cohort follow-up: tolerance of celiprolol with 3-month up-titration; assay type: in vivo, human
Experimental: as §3
Adherence to medication was verified by open interview of the patients at each follow-up visit. Low medication adherence was considered if patients admitted to not taking their medication regularly at any moment of their follow-up. Patients were considered intolerant to celiprolol in case of refusal to follow the prescription even at a minimum dose of 100 mg/day. Patients taking another beta-blocker were offered to switch to celiprolol but this change was not mandatory, especially if patients had been clinically silent until molecular diagnosis while under another betablocker. If an acute arterial event occurred, patients were once again offered to switch to celiprolol. To reach significant numbers to allow comparative analysis, intolerant patients, patients not taking celiprolol, patients taking another betablocker and non-adherent patients were merged into one group further referred to as “not treated”.

[4] = tested on: patients with a phenotype of vEDS or molecularly proven vEDS; conditions: final 200 mg twice a day (BID); 5-year follow-up; 18-month up-titration; cited from earlier work
[5] = Cox's model, stepwise method, n=132
[6] = multivariate Cox's model, n=132 (Groups I and II)
[7] = whole cohort, 90.3% on celiprolol by end of study

## CCN(CC)C(=O)Nc1ccc(OCC(O)CNC(C)(C)C)c(C(C)=O)c1 (stereo not shown) [celiprolol, N′-(3-Acetyl-4-(3-((1,1-dimethylethyl)amino)-2-hydroxypropoxy)phenyl)-N, N-diethylurea]
[1]; 400 mg/day better than a smaller dose
  Observed reduction in mortality: dose dependence: dose-dependent
[1]; [5]
  Hazard ratio, celiprolol treatment Full dose/No: 0.060
  Hazard ratio, celiprolol treatment Half dose/No: 0.305
  Hazard ratio, treatment duration ≥6 years/<6 years: 0.058
[1]; Group I (glycine missense), n=144 cohort
  Survival according to type of variant: Group I: 65.1%
[1]; Group II (splice-site variants, insertions/deletions, duplications)
  Survival according to type of variant: Group II: 89.6%
[1]; Group III (haploinsufficiency)
  Survival according to type of variant: Group III: 100%
[1]; Groups I and II (n=132), treated n=110
  Survival at end of follow-up in those treated with celiprolol: 80.7%
[1]; Groups I and II, 400 mg/day
  Survival at end of follow-up according to daily dose: celiprolol 400 mg/day: 85%
[1]; Groups I and II, 100-300 mg/day
  Survival at end of follow-up according to daily dose: celiprolol 100-300 mg/day: 62.8%
[1]; [6]
  Hazard ratio, celiprolol treatment Full dose/No: 0.048
  Hazard ratio, celiprolol treatment Half dose/No: 0.303
  Hazard ratio, treatment duration ≥6 years/<6 years: 0.058
[1]; n=144, 1 year
  Survival of patients at 1 year of follow-up: 98.6%
[1]; n=144, 5 years
  Survival of patients at 5 years of follow-up: 92%
[1]; n=144, 10 years
  Survival of patients at 10 years of follow-up: 82.7%
[1]; n=144 vascular EDS patients, end of follow-up
  Overall patient survival (Kaplan-Meier): 71.6%
[1]; of N=17 deceased patients
  Deceased patients with celiprolol treatment (Yes), %: (52.9%)
[1]; of N=127 alive patients
  Alive patients with celiprolol treatment (Yes), %: (87.4%)
[1]; overall conclusion
  Survival of patients treated with celiprolol compared with others: better survival than others
[2]; before vs after systematic introduction of celiprolol (2011)
  Odds ratio (OR), rate of hospitalizations for acute arterial event before and after 2011: 1.72
[2]; in vivo
  Effect of celiprolol on mean age of occurrence of first and second new arterial event: without identifiable effect
[2]; [7]
  Cumulative incidence of a first new arterial event during follow-up: 56.8%
  Cumulative incidence of a second new arterial event during follow-up: 29.8%
[3]; full dose, up-titration of about three months
  Celiprolol intolerance and side effects with about three-month up-titration: without significant increase
[3]; human, in vivo
  Patients requiring dose reduction due to fatigue and/or dizziness: 3.47%
[3]; n=2 of 144
  Patients who declared themselves intolerant to celiprolol or refused to take it in fear of intolerance: 1.4%
[4]
  reduction in morbidity and mortality: 35%
